Data: the NIST ThermoML archive (doi:10.1016/j.fluid.2008.03.012)
± gives the expanded uncertainty stated by the source.

Test: excess molar enthalpy (molar enthalpy of mixing); xn = mol fraction of the nth substance listed
Settings: Liquid, Flow calorimetry

CCOC(=O)CC(C)=O [ethyl 3-oxobutanoate] + CCO
excess molar enthalpy [kJ/mol]
Settings	298.15 K	313.15 K	328.15 K
100 kPa, x1 = 0.0999	0.744 ± 0.017	0.847 ± 0.019	0.907 ± 0.02
100 kPa, x1 = 0.1997	1.2 ± 0.026	1.36 ± 0.03	1.5 ± 0.032
100 kPa, x1 = 0.2994	1.49 ± 0.032	1.68 ± 0.036	1.86 ± 0.04
100 kPa, x1 = 0.3495	1.59 ± 0.034	1.8 ± 0.038	1.98 ± 0.042
100 kPa, x1 = 0.3999	1.66 ± 0.036	1.88 ± 0.04	2.06 ± 0.044
100 kPa, x1 = 0.4501	1.7 ± 0.036	1.91 ± 0.041	2.1 ± 0.045
100 kPa, x1 = 0.4995	1.71 ± 0.037	1.92 ± 0.041	2.1 ± 0.045
100 kPa, x1 = 0.5492	1.69 ± 0.036	1.9 ± 0.041	2.07 ± 0.044
100 kPa, x1 = 0.6008	1.65 ± 0.035	1.84 ± 0.039	1.99 ± 0.043
100 kPa, x1 = 0.6501	1.58 ± 0.034	1.75 ± 0.037	1.88 ± 0.04
100 kPa, x1 = 0.7008	1.48 ± 0.032	1.62 ± 0.035	1.74 ± 0.037
100 kPa, x1 = 0.8006	1.15 ± 0.025	1.24 ± 0.027	1.31 ± 0.029
100 kPa, x1 = 0.9002	0.657 ± 0.015	0.703 ± 0.016	0.712 ± 0.017
10000 kPa, x1 = 0.0998	0.725 ± 0.016	0.845 ± 0.019	0.898 ± 0.02
10000 kPa, x1 = 0.1995	1.17 ± 0.026	1.36 ± 0.029	1.47 ± 0.032
10000 kPa, x1 = 0.2992	1.46 ± 0.032	1.68 ± 0.036	1.82 ± 0.039
10000 kPa, x1 = 0.3493	1.55 ± 0.033	1.8 ± 0.038	1.94 ± 0.041
10000 kPa, x1 = 0.3996	1.62 ± 0.035	1.87 ± 0.04	2.01 ± 0.043
10000 kPa, x1 = 0.4498	1.66 ± 0.036	1.9 ± 0.041	2.05 ± 0.044
10000 kPa, x1 = 0.4992	1.67 ± 0.036	1.92 ± 0.041	2.05 ± 0.044
10000 kPa, x1 = 0.5489	1.66 ± 0.035	1.89 ± 0.041	2.01 ± 0.043
10000 kPa, x1 = 0.6005	1.61 ± 0.035	1.83 ± 0.039	1.94 ± 0.042
10000 kPa, x1 = 0.6499	1.54 ± 0.033	1.75 ± 0.037	1.83 ± 0.039
10000 kPa, x1 = 0.7005	1.44 ± 0.031	1.62 ± 0.035	1.69 ± 0.036
10000 kPa, x1 = 0.8004	1.12 ± 0.025	1.24 ± 0.027	1.26 ± 0.028
10000 kPa, x1 = 0.9001	0.629 ± 0.015	0.699 ± 0.016	0.701 ± 0.016

CCOC(=O)CC(C)=O [ethyl 3-oxobutanoate] + CO
excess molar enthalpy [kJ/mol]
Settings	298.15 K	313.15 K	328.15 K
100 kPa, x1 = 0.0998	0.503 ± 0.011	0.563 ± 0.013	0.612 ± 0.014
100 kPa, x1 = 0.2002	0.845 ± 0.018	0.949 ± 0.021	1.02 ± 0.022
100 kPa, x1 = 0.2994	1.07 ± 0.023	1.19 ± 0.026	1.29 ± 0.028
100 kPa, x1 = 0.3505	1.15 ± 0.025	1.28 ± 0.027	1.39 ± 0.03
100 kPa, x1 = 0.3995	1.2 ± 0.026	1.33 ± 0.029	1.45 ± 0.031
100 kPa, x1 = 0.4495	1.23 ± 0.026	1.36 ± 0.029	1.48 ± 0.032
100 kPa, x1 = 0.4998	1.25 ± 0.027	1.38 ± 0.03	1.49 ± 0.032
100 kPa, x1 = 0.5495	1.24 ± 0.026	1.36 ± 0.029	1.47 ± 0.032
100 kPa, x1 = 0.5997	1.21 ± 0.026	1.33 ± 0.029	1.43 ± 0.031
100 kPa, x1 = 0.65	1.15 ± 0.025	1.27 ± 0.027	1.35 ± 0.029
100 kPa, x1 = 0.6995	1.07 ± 0.023	1.17 ± 0.025	1.25 ± 0.027
100 kPa, x1 = 0.7994	0.832 ± 0.018	0.884 ± 0.019	0.936 ± 0.021
100 kPa, x1 = 0.8982	0.465 ± 0.011	0.479 ± 0.011	0.502 ± 0.012
10000 kPa, x1 = 0.0996	0.484 ± 0.011	0.555 ± 0.013	0.606 ± 0.014
10000 kPa, x1 = 0.1999	0.822 ± 0.018	0.941 ± 0.021	1.02 ± 0.022
10000 kPa, x1 = 0.299	1.04 ± 0.022	1.18 ± 0.025	1.29 ± 0.028
10000 kPa, x1 = 0.35	1.11 ± 0.024	1.27 ± 0.027	1.38 ± 0.03
10000 kPa, x1 = 0.399	1.16 ± 0.025	1.33 ± 0.029	1.45 ± 0.031
10000 kPa, x1 = 0.449	1.18 ± 0.025	1.36 ± 0.029	1.48 ± 0.032
10000 kPa, x1 = 0.4993	1.2 ± 0.026	1.37 ± 0.029	1.49 ± 0.032
10000 kPa, x1 = 0.5489	1.18 ± 0.025	1.36 ± 0.029	1.47 ± 0.032
10000 kPa, x1 = 0.5992	1.15 ± 0.025	1.32 ± 0.028	1.42 ± 0.03
10000 kPa, x1 = 0.6495	1.09 ± 0.024	1.26 ± 0.027	1.35 ± 0.029
10000 kPa, x1 = 0.699	1.01 ± 0.022	1.14 ± 0.025	1.24 ± 0.027
10000 kPa, x1 = 0.799	0.76 ± 0.017	0.875 ± 0.019	0.931 ± 0.02
10000 kPa, x1 = 0.898	0.412 ± 0.0097	0.472 ± 0.011	0.495 ± 0.012
